Some test systems named below: MCF7 breast; UO-31 renal; T-47D breast; KM12 colon; CAKI-1 renal; HOP-62 NSCLC; COLO 205 colon; BT-549 breast; SK-OV-3 ovarian; MOLT-4 leukemia.
Holding throughout (experiment): DTP human tumour cell line panel, 48 h

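Dose response: 5 concentrations. Exposure: 48 h. Format: 96-well plates. Endpoint: linear interpolation; highest concentration if not reached. GI50: concentration for 50% inhibition of growth. TGI denotes the concentration required for complete inhibition of growth.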

Eight molecules from PubChem BioAssay (NCI) can be followed below.

For `O=C1C(=O)c2ccc(Br)cc2-c2cc(Br)ccc21`, the GI50 (as a rule, the concentration giving 50% growth inhibition) in the assay on MCF7 breast was 2.34 µM; with UO-31 renal it was 5.61 µM; with T-47D breast, 1.41 µM; in the assay with KM12 colon, 9.65 µM; in the assay on CAKI-1 renal, 2.09 µM; in the assay on HOP-62 NSCLC it was 8.44 µM. The GI50 is > 100 µM in the assay on COLO 205 colon, 7.69 µM in the assay on BT-549 breast, 29.1 µM in the assay with SK-OV-3 ovarian and 0.522 µM with MOLT-4 leukemia. Further, the TGI (commonly the concentration at which net growth stops) in the assay with MCF7 breast was 8.61 µM; in the assay on UO-31 renal, > 100 µM; in the assay on T-47D breast it was 3.92 µM; with KM12 colon it was > 100 µM; with CAKI-1 renal, 9.92 µM; in the assay on HOP-62 NSCLC it was > 45.6 µM. Besides, the TGI in the assay with COLO 205 colon is > 100 µM; with BT-549 breast, > 95.3 µM; in the assay with SK-OV-3 ovarian, > 87.5 µM; with MOLT-4 leukemia, 1.66 µM.

Turning to `COc1ccc(-c2cc3cccc(OC)c3c(=O)o2)cc1OC`, the GI50 in the assay with MCF7 breast was 32 µM; in the assay with UO-31 renal it was 95.4 µM; in the assay with T-47D breast, 28.3 µM; in the assay with KM12 colon, 92.2 µM; in the assay on CAKI-1 renal, 0.094 µM; with HOP-62 NSCLC it was 62.5 µM. Besides, the GI50 is 35.8 µM with COLO 205 colon, 0.636 µM with BT-549 breast, 46.2 µM in the assay with SK-OV-3 ovarian and 47.9 µM with MOLT-4 leukemia. Further, the TGI with MCF7 breast is > 100 µM; in the assay on UO-31 renal, > 100 µM; in the assay with T-47D breast, > 100 µM; with KM12 colon it was > 100 µM; in the assay with CAKI-1 renal, 32 µM; with HOP-62 NSCLC it was > 100 µM. The TGI with COLO 205 colon was > 100 µM; in the assay on BT-549 breast, 88 µM; in the assay with SK-OV-3 ovarian, > 100 µM; in the assay with MOLT-4 leukemia, > 100 µM.

As for `COc1cc(-c2c3c(cn2S(=O)(=O)c2ccccc2)-c2nc(N)sc2CC3)cc(OC)c1OC`, the GI50 with MCF7 breast was 0.381 µM; with UO-31 renal, 2.98 µM; in the assay with T-47D breast, 0.433 µM; with KM12 colon, 0.722 µM; with CAKI-1 renal it was 0.724 µM; with HOP-62 NSCLC, 2.05 µM. Moreover, the GI50 in the assay with COLO 205 colon was 1.14 µM; in the assay on BT-549 breast it was 2.75 µM; in the assay on SK-OV-3 ovarian, 1.17 µM; with MOLT-4 leukemia, 0.701 µM. The TGI in the assay on MCF7 breast was 21.4 µM; in the assay with UO-31 renal, > 100 µM; with T-47D breast, 20.6 µM; in the assay on KM12 colon, > 100 µM; with CAKI-1 renal it was 36.6 µM; in the assay with HOP-62 NSCLC, 63.2 µM. Moreover, the TGI was found to be 3.53 µM in the assay on COLO 205 colon, 43.1 µM in the assay with BT-549 breast, 9.77 µM with SK-OV-3 ovarian and 43.1 µM in the assay on MOLT-4 leukemia.

In the case of `CC(C)C1CN1CC(O)Cn1ccnc1[N+](=O)[O-]` (stereo not given), the TGI with MCF7 breast, in the assay with UO-31 renal, with T-47D breast, with KM12 colon, in the assay on CAKI-1 renal and in the assay with HOP-62 NSCLC was > 100 µM each time. The TGI with COLO 205 colon, in the assay on BT-549 breast, in the assay with SK-OV-3 ovarian and with MOLT-4 leukemia was > 100 µM each time.

`CCC(=O)Sc1ccccc1C(=O)Nc1ccc(Cl)cc1`: the GI50 was 3.86 µM with MCF7 breast; 6.53 µM in the assay with UO-31 renal; 8.96 µM with T-47D breast; 6.69 µM with KM12 colon; 10.2 µM in the assay with CAKI-1 renal; 12.5 µM with HOP-62 NSCLC. For the same molecule, the GI50 was 13.6 µM in the assay with COLO 205 colon, 3.21 µM in the assay with BT-549 breast, 18.7 µM in the assay on SK-OV-3 ovarian and 4.67 µM in the assay on MOLT-4 leukemia. Besides, the TGI in the assay with MCF7 breast was 36.2 µM; with UO-31 renal it was > 100 µM; with T-47D breast, 38.6 µM; with KM12 colon, 36.8 µM; with CAKI-1 renal, 38.4 µM; in the assay on HOP-62 NSCLC, 34.2 µM. In addition, the TGI in the assay on COLO 205 colon is 32.1 µM; in the assay with BT-549 breast it was 9.89 µM; in the assay with SK-OV-3 ovarian, 53.9 µM; with MOLT-4 leukemia, 92.6 µM.

In the case of `CC1(C)CCC(S(=O)(=O)c2ccc3c(c2)/C(=N\O)c2cc(S(=O)(=O)N4CCC(O)(c5cccc(C(F)(F)F)c5)CC4)ccc2-3)CC1`, the GI50 in the assay on MCF7 breast is 0.0206 µM; with UO-31 renal, 1.67 µM; in the assay on T-47D breast, 0.0192 µM; in the assay on KM12 colon, 0.0217 µM; in the assay with CAKI-1 renal, 0.0752 µM; with HOP-62 NSCLC, 0.0208 µM. The GI50 in the assay with COLO 205 colon was 0.0208 µM; with BT-549 breast, 0.054 µM; with SK-OV-3 ovarian it was 0.0238 µM; in the assay on MOLT-4 leukemia it was 0.0199 µM. Also, the TGI with MCF7 breast was found to be 0.0485 µM; with UO-31 renal it was 5.49 µM; in the assay on T-47D breast it was 0.0414 µM; with KM12 colon, 0.0503 µM; with CAKI-1 renal it was 1.14 µM; in the assay with HOP-62 NSCLC, 0.0489 µM. For the same molecule, the TGI in the assay on COLO 205 colon came to 0.0455 µM; with BT-549 breast, 0.226 µM; in the assay on SK-OV-3 ovarian, 0.0593 µM; in the assay on MOLT-4 leukemia, 0.0444 µM.

As to `OCC1SC(n2cnc3cncnc32)C(O)C1O` (stereo not given), the GI50 in the assay with MCF7 breast, in the assay with UO-31 renal, with T-47D breast, with KM12 colon, in the assay on CAKI-1 renal and in the assay on HOP-62 NSCLC was > 100 µM in each case. In addition, the GI50 with COLO 205 colon, with BT-549 breast, in the assay with SK-OV-3 ovarian and in the assay on MOLT-4 leukemia was > 100 µM each time. The TGI in the assay on MCF7 breast, in the assay with UO-31 renal, in the assay on T-47D breast, in the assay with KM12 colon, with CAKI-1 renal and with HOP-62 NSCLC was > 100 µM throughout. Further, the TGI in the assay on COLO 205 colon, in the assay with BT-549 breast, in the assay on SK-OV-3 ovarian and with MOLT-4 leukemia was > 100 µM throughout.

In the case of `COc1ccc(C(CC(=O)c2ccccc2)C(C(=O)c2ccccc2)C(c2ccc(OC)cc2)C2C(=O)NC(=O)NC2=O)cc1` (stereo not given), the GI50 is 18.7 µM in the assay on MCF7 breast; 13.5 µM in the assay with UO-31 renal; 21.6 µM with T-47D breast; 19.1 µM in the assay on KM12 colon; 2.85 µM in the assay with CAKI-1 renal; 26.3 µM in the assay with HOP-62 NSCLC. Moreover, the GI50 with COLO 205 colon is 3.43 µM; in the assay with BT-549 breast, 21.9 µM; in the assay on SK-OV-3 ovarian it was > 100 µM; in the assay on MOLT-4 leukemia it was 60.7 µM. Further, the TGI with MCF7 breast was > 100 µM; in the assay with UO-31 renal, 47.7 µM; in the assay with T-47D breast, > 100 µM; in the assay with KM12 colon it was > 100 µM; in the assay with CAKI-1 renal, 20.3 µM; in the assay with HOP-62 NSCLC it was 66.6 µM. The concentration for total growth inhibition (TGI) was 19.1 µM with COLO 205 colon, 92.8 µM in the assay with BT-549 breast, > 100 µM in the assay on SK-OV-3 ovarian and > 100 µM with MOLT-4 leukemia.
